Data reported in PMC6921279 (Frontiers in Endocrinology, 2019).

How the values were obtained:
[1] = system: CRF1R-mediated Akt phosphorylation; assay: CRF-induced Akt phosphorylation at Ser473 in COS-7 cells expressing HA-CRF1R; type: cell-based, human; conditions: wortmannin 100 nM, 30 min pretreatment; 100 nM CRF, 5 min
Experimental: Plasmid pRK5 encoding the carboxyl terminus of βARK that contains its βγ-binding domain (ct-βARK) was kindly provided by Dr. W. Koch (Center for Translational Medicine, Temple University, Philadelphia, PA), which is a scavenger for G protein βγ subunits ([25]). […] Plasmid pUSEamp encoding dominant-negative Akt-K179M (dn-Akt) was from Upstate Biotechnology (Lake Placid, NY).
(§1) COS-7 cells (from the American Type Culture Collection) were cultured at 37°C in a humidified atmosphere of 95% air, 5% CO2, in DMEM supplemented with 10% FBS, 100 μg/ml streptomycin, and 100 units/ml penicillin (COS-7 growth medium). Transient transfections were performed using LipofectAMINE (Life Technologies: Gaithersburg, MD) as described previously ([27]). Cells were seeded at 8 × 10^5 cells/10-cm dish in COS-7 medium and cultured for 3 days before transfection. COS-7 cells were transfected in 5 ml/dish OptiMEM containing 10 μg/ml LipofectAMINE with empty vector, pcDNA3 encoding the HA-CRF1R or the HA-CRF1R-Δ386 mutant. […] After replacing the transfection medium with fresh growth medium, transfected COS-7 cells were cultured for 1 day. Subsequently, cells were re-seeded in 6-well plates and cultured for an additional day prior to the experiment.
The protocols for measuring total and phosphorylated ERK1/2, c-Src, PYK2, Akt, and EGFR have been previously published ([28], [29]). After cells were cultured to 60–70% confluence, they were serum-deprived for 24 h. On the day of the experiment, cells were treated with the indicated ligands and inhibitors. […] After treatment, cells were placed on ice, the media was aspirated, and the cells were washed twice with ice-cold PBS and lysed in 100 μl of Laemmli sample buffer 1X. The lysates were briefly sonicated, heated at 95°C for 5 min, and centrifuged for 5 min at 14,000 rpm. Resulting supernatants were loaded in separate lanes of a 10% SDS-PAGE gels and electrophoresed. Next, Western transfer on to PDVF membranes was completed. The Western blots were then probed with specific antibodies targeting phosphorylated and non-phosphorylated forms of ERK1/2, c-Src, PYK2, Akt, and EGFR for primary immunodetection. […] The labeled bands were quantified using the Quantity One 4.6.3 software program (Bio-Rad).
Figure 7 CRF mediates Akt activation. […] Total cell lysates were separated by SDS-PAGE and analyzed by immunoblotting with anti-p-Akt Ser^473, as described in Materials and Methods. Akt phosphorylation was quantitated by densitometry, and mean values were plotted from three to five independent experiments. […]

[2] = system: CRF1R-mediated ERK1/2 phosphorylation; assay: Modulation of CRF-stimulated ERK1/2 phosphorylation in COS-7 cells expressing HA-CRF1R; type: cell-based; conditions: wortmannin (0–100 nM), 30 min pretreatment; 100 nM CRF, 5 min
How it was run: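 Lysates were immunoblotted for phospho-ERK1/2 Thr202/Tyr204. Phosphorylation was quantified by densitometry as the mean of three to five independent experiments.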

Src = assay: CRF-induced Src phosphorylation at Tyr416 in COS-7 cells expressing HA-CRF1R; type: cell-based; conditions: 100 nM wortmannin, 30 min pretreatment; 100 nM CRF, 5 min
Experimental: as §1, with “Subsequently, cells were re-seeded in 6-well plates and cultured for an additional day prior to the experiment.” left out
The protocols for measuring total and phosphorylated ERK1/2, c-Src, PYK2, Akt, and EGFR have been previously published ([28], [29]). […] The labeled bands were quantified using the Quantity One 4.6.3 software program (Bio-Rad).
Figure 5 Role of Src tyrosine kinase in CRF-stimulated ERK1/2 phosphorylation. […] Total cell lysates were separated by SDS-PAGE and analyzed by immunoblotting with anti-p-Src Tyr^416 (A,B) or anti-p-ERK1/2 Thr^202/Tyr^204 (C–E), as described in Materials and Methods. Src, PYK2, and ERK1/2 phosphorylation were quantitated by densitometry, and mean values were plotted from three to five independent experiments. […]

## COC[C@H]1OC(=O)c2coc3c2[C@@]1(C)C1=C(C3=O)[C@@H]2CCC(=O)[C@@]2(C)C[C@H]1OC(C)=O [wortmannin]
[1]
  effect on CRF1R-mediated Akt signaling activation: abolished CRF1R-mediated Akt signaling activation
[2]
  effect on CRF-stimulated ERK1/2 phosphorylation: abolished CRF-stimulated ERK1/2 phosphorylation
Src
  effect on CRF-induced Src Tyr416 phosphorylation: did not alter CRF-induced phosphorylation of Src at Tyr^416
